Results on 13 compounds are retold here after ChEMBL document CHEMBL6109138 (J Med Chem, 2025).

pKi: −log10 of the molar value. Values after ≈ are worked out from the molar mass of the structure shown. Some results are limits rather than exact numbers.

For one data set, the target named is D(2) dopamine receptor (Homo sapiens, UniProt P14416). The data set is described as follows: Displacement of [3H]N-methylspiperone from human D2L receptor extracted from HEK293 cell membrane assessed as inhibition constant incubated for 1 hrs by radioligand competitive binding based scintillation counter analysis. Format: cell membranes. Background: Loss of bound radioactivity is the signal in a displacement assay; it reports binding, not function.

Data set [1] is described as follows: Kinetic solubility of compound pH 7.4. Format: physicochemical. The settings on record: buffer, read-out: Kinetic_solubility.
Data set [2] in a line: Protein binding in human plasma assessed as unbound fraction at 0.5 uM. Type of data set: ADME, cell-free.
Data set [3] can be described thus: Protein binding in mouse plasma assessed as unbound fraction at 0.5 uM. Format: ADME, cell-free.
Data set [4] in a line: Metabolic stability in human liver microsomes assessed as intrinsic clearance measured per mg protein. Type of data set: ADME, Microsome. The following applies: read-out: CLH.
A short description of data set [5]: Metabolic stability in human liver microsomes assessed as intrinsic clearance measured per gram liver. Type of data set: ADME, Microsome. On the technique in general: Microsomes from liver hold many membrane-bound enzymes, among them those of drug oxidation.
Data set [6] is described as follows: Metabolic stability in human liver microsomes assessed as half-life. Type of data set: ADME, Microsome.
The nature of data set [7]: Metabolic stability in mouse liver microsomes assessed as intrinsic clearance measured per mg protein. Type of data set: ADME, Microsome. The following applies: read-out: CLH.
Data set [8] is described as follows: Metabolic stability in mouse liver microsomes assessed as intrinsic clearance measured per gram liver. Type of data set: ADME, Microsome.
Data set [9] can be described thus: Metabolic stability in mouse liver microsomes assessed as half-life. Format: ADME, Microsome.
Data set [10] is described as follows: Apparent passive permeability across apical to basolateral side in MDCKII-MDR1 cells. Format: ADME, cell-based, Canis lupus familiaris. The following applies: dog, MDCK-MDR1.
Data set [11] in a line: Apparent passive permeability across basolateral to apical side in MDCKII-MDR1 cells. Format: ADME, cell-based, Canis lupus familiaris. The settings on record: dog, MDCK-MDR1.
Data set [12] has as its system U-87 MG. Briefly: Growth inhibition of human U-87 MG cells incubated for 48 hrs by SRB assay. Format: functional, U-87MG ATCC. Background: In SRB staining, fixed cells bind dye roughly in proportion to their protein.
Data set [13] relates to U-87 MG. Briefly: Antitumor activity against human U-87 MG cells assessed as total growth inhibition incubated for 48 hrs by SRB assay. Format: functional, U-87MG ATCC.
Data set [14] relates to U-87 MG. The data set is described as follows: Antitumor activity against human U-87 MG cells assessed as lethal concentration incubated for 48 hrs by SRB assay. Type of data set: functional, U-87MG ATCC.
Data set [15] has as its system T98G. Briefly: Growth inhibition of human T98G cells incubated for 48 hrs by SRB assay. Format: functional.
Data set [16] concerns T98G. The data set is described as follows: Antitumor activity against human T98G cells assessed as total growth inhibition incubated for 48 hrs by SRB assay. Format: functional.
Data set [17] relates to T98G. Briefly: Antitumor activity against human T98G cells assessed as lethal concentration incubated for 48 hrs by SRB assay. Format: functional.
Data set [18] relates to U-251. The data set is described as follows: Growth inhibition of human U-251MG cells incubated for 48 hrs by SRB assay. Type of data set: functional.
Data set [19] concerns U-251. The data set is described as follows: Antitumor activity against human U-251MG cells assessed as total growth inhibition incubated for 48 hrs by SRB assay. Format: functional.
In data set [20] the test system is U-251. Briefly: Antitumor activity against human U-251MG cells assessed as lethal concentration incubated for 48 hrs by SRB assay. The settings on record: read-out: LC50 (the source's name). Type of data set: functional.
In data set [21] the target is T1, D(4) dopamine receptor (Homo sapiens) (UniProt P21917).
T1 sequence (whole entry): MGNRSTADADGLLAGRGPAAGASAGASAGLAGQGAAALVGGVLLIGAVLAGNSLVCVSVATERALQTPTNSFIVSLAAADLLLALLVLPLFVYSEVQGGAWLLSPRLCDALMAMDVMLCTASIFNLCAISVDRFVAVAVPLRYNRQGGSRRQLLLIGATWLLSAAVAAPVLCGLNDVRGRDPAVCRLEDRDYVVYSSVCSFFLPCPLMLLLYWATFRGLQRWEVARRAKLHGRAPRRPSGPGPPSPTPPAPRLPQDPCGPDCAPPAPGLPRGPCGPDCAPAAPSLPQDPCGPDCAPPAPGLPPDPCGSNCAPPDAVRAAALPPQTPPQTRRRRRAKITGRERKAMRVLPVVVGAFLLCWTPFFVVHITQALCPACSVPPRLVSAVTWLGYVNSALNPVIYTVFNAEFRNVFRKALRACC
The data set is described as follows: Partial agonist activity at D4 receptor (unknown origin) assessed as bias factor by beta-arrestin recruitment assay versus Gi activation assay. Format: functional. The following applies: filed as partial agonist.

In data set [22] the target is T1, D(4) dopamine receptor (Homo sapiens). The data set is described as follows: Partial agonist activity at D4 receptor (unknown origin) assessed as bias factor by Gi activation assay versus beta-arrestin recruitment assay. The following applies: filed as partial agonist. Type of data set: functional.

Sequence of D(2) dopamine receptor (P14416 whole entry): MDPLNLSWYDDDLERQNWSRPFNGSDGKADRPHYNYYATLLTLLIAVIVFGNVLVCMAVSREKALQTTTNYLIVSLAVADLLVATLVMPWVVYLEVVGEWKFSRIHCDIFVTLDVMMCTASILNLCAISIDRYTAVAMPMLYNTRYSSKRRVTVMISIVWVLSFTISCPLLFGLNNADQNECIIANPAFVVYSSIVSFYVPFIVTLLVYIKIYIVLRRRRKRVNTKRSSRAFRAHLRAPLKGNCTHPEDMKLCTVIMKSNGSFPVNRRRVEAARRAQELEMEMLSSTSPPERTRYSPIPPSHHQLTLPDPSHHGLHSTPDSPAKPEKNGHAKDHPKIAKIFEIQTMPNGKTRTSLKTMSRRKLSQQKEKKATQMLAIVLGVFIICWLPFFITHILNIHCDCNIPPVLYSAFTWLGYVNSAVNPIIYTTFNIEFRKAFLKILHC

In general, pKi refers to the Ki on a negative log10 scale, so that one unit is a factor of ten. Usually fraction unbound stands for the share of the substance not bound to proteins or other matrix. As usually defined, the half-life is the time in which the quantity being followed falls by half. As usually defined, the Papp A→B is the apparent permeability from the apical to the basolateral side of a cell layer. The term Papp B→A denotes how fast a substance crosses the layer from the basolateral side. What is called GI50 is the concentration that inhibits growth by half. A higher GI50 goes with less potent growth inhibition. The TGI is the concentration giving total growth inhibition. One may read the LC50 as the concentration lethal to half of the exposed cells or organisms. On to `O=C1CCc2ccccc2N1CCCN1CCN(c2cccc3ccccc23)CC1`, for which the negative logarithm of the Ki (pKi) at D(2) dopamine receptor was 7.54. Also, the solubility kinetic in [1] turned out to be 112 µM (≈ 44.7 µg/mL). The results for the fraction unbound at 0.5 µM in data set [2] and in [3] were 0.23 and 0.48, respectively. Besides, the microsomal CLint in data set [4] came to 145 µL/min/mg; in data set [7], 288 µL/min/mg. The scaled CLint was determined as 5.78 mL/min/g in data set [5] and 13 mL/min/g in data set [8]. Also, the half-life worked out at 9.58 min in data set [6] and 4.81 min in [9]. The apparent permeability from apical to basolateral (Papp A→B) in data set [10] amounted to 1.84 ×10⁻⁶ cm/s. In addition, the basolateral-to-apical permeability (Papp B→A) in data set [11] worked out at 3.47 ×10⁻⁶ cm/s. Besides, the results for the concentration for 50% growth inhibition (GI50) with U-87 MG [12], in the data set with T98G [15] and with U-251 [18] were 19.5 µM, 12.2 µM and 22.6 µM, respectively. For the same compound, the concentration for total growth inhibition (TGI) in the data set on U-87 MG [13] amounted to 39.5 µM; in the data set with T98G [16] it was 32.1 µM; in the data set on U-251 [19], 36.6 µM. Besides, the LC50 in the data set with U-87 MG [14] came to 80 µM. The LC50 (lethal concentration 50%) in the data set on T98G [17] amounted to 71 µM. Moreover, in the data set with U-251 [20], the CC50 was determined as 78.7 µM.

Turning to `Cc1ccc2nc(CNCCCOc3ccccc3)cc(O)c2c1`, in [21], the Activity was 7.4.

On to `CC(C)N1C[C@H](NC(=O)N2Cc3ccccc3[C@@H]2C)[C@@H](C)C1`, for which the Activity in data set [22] was 17.

Consider `Cn1nnc2c(C(N)=O)ncn2c1=O` [TEMOZOLOMIDE], for which the GI50 with U-87 MG [12], in the data set on T98G [15] and in the data set with U-251 [18] was greater than 200 µM each time. The TGI with U-87 MG [13], with T98G [16] and in the data set on U-251 [19] was greater than 200 µM in each case. Moreover, the CC50 in the data set with U-251 [20] was greater than 200 µM.

`O=C1CCc2ccccc2N1CCCN1CCN(c2ccc(Cl)cc2)CC1`: the 50% growth inhibitory concentration (GI50) in the data set on U-87 MG [12] came to 42.6 µM; in the data set on T98G [15] it was 21.9 µM; in the data set with U-251 [18], 61.6 µM. Further, the TGI in the data set with U-87 MG [13] worked out at 102 µM; in the data set with T98G [16], 66.1 µM; with U-251 [19], 104 µM. Also, the LC50 in the data set with U-87 MG [14] is 245 µM. For the same compound, the LC50 (lethal concentration 50%) with T98G [17] was 200 µM. Besides, in the data set on U-251 [20], the CC50 worked out at 182 µM.

For `O=C1CCc2ccccc2N1CCCN1CCN(c2ccc(Br)cc2)CC1`, the negative-log Ki (pKi) at D(2) dopamine receptor is 5.50.

Regarding `COC(=O)c1ccc(N2CCN(CCCN3C(=O)CCc4ccccc43)CC2)cc1`, on D(2) dopamine receptor, the pKi is 4.33.

For `O=C1CCc2ccccc2N1CCCN1CCN(c2ccc(C(F)(F)F)cc2)CC1`, the negative-log Ki (pKi) at D(2) dopamine receptor was 4.53.

With `O=C1CCc2ccccc2N1CCCN1CCN(c2ccccc2-c2ccccc2)CC1`, the pKi on D(2) dopamine receptor is 7.12.

For the compound `O=C1CCc2ccccc2N1CCCN1CCN(C2CCCCC2)CC1`, the negative logarithm of the Ki (pKi) on D(2) dopamine receptor is 4.60.

As to `O=C1CCc2ccccc2N1CCCN1CCN(c2ccc(I)cc2)CC1`, the pKi on D(2) dopamine receptor was 5.49.

On to `O=C1CCc2ccccc2N1CCCN1CCN(c2ccc(F)cc2)CC1`, for which the pKi on D(2) dopamine receptor is 5.39.

Turning to `O=C1CCc2ccccc2N1CCCN1CCN(c2ccc3ccccc3c2)CC1`, the negative logarithm of the Ki (pKi) at D(2) dopamine receptor was 5.21. For the same compound, the solubility kinetic in data set [1] amounted to 163 µM (≈ 65.1 µg/mL). The unbound share (fraction unbound) at 0.5 µM in [2] is 0.41; in data set [3] it was 0.71. The microsomal CLint in data set [4] is 73.8 µL/min/mg; in [7], 202 µL/min/mg. Further, the results for the scaled CLint in [5] and in [8] were 2.95 mL/min/g and 9.09 mL/min/g, respectively. For the same compound, the half-life in data set [6] amounted to 18.8 min; in data set [9] it was 6.86 min. The apical-to-basolateral permeability (Papp A→B) in data set [10] was 1.77 ×10⁻⁶ cm/s. Also, the apparent permeability from basolateral to apical (Papp B→A) in [11] worked out at 2.06 ×10⁻⁶ cm/s. Further, the results for the GI50 with U-87 MG [12], in the data set with T98G [15] and in the data set on U-251 [18] were 25.7 µM, 20 µM and 26.5 µM, respectively. Also, the total growth inhibition concentration (TGI) with U-87 MG [13] came out at 55.2 µM; with T98G [16], 42.1 µM; in the data set on U-251 [19] it was 63.2 µM. Besides, in the data set with U-87 MG [14], the 50% lethal concentration (LC50) was 118 µM. Further, the LC50 (lethal concentration 50%) in the data set with T98G [17] came out at 96.7 µM. Further, the CC50 with U-251 [20] amounted to 201 µM.
